Test system: patients with advanced solid tumors
Assay: Phase Ia safety, tolerability, DLT/MTD (TRAEs graded by NCI-CTCAE v4.03)
Type: in vivo
Excerpt: This is a phase I clinical study (ClinicalTrials.gov identifier: NCT03544905), including a phase Ia study of oral CYH33 monotherapy in patients with advanced solid tumors, and a phase Ib study of oral CYH33 monotherapy focused on several specific tumors. […] The phase Ia study included dose-escalation stage and dose-expansion stage. […] The secondary outcomes also included evaluation of changes in PD biomarkers in response to CYH33 treatment (including proteomics of blood specimens at baseline and during treatment, immunocyte subpopulation ratios and molecular markers, cell free DNA in peripheral blood, and blood glucose). However, in compliance with the local human genetic resource regulations and procedures, peripheral blood samples were not obtained for PD biomarker analysis, therefore, only fasting blood glucose was obtained and used as a PD biomarker for CYH33 treatment. The exploratory objective was the relationship between the efficacy of CYH33 treatment and tumor biomarker status.
An accelerated titration design (ATD) and an mTPI-2 design were adopted to guide toxicity monitoring and dose escalation. The target DLT rate was 30%, with the acceptable toxicity probability interval of (0.25, 0.35). For the first two preset doses of 1 mg and 5 mg CYH33 in the ATD phase, if there were no grade ≥2 TRAEs during the DLT observation period, 100% dose escalation was allowed in the subsequent dose group. After entering the mTPI-2 phase, the SMC guidance was followed to determine the dose level, dosing frequency, and number of subjects in the next dose group, based on the previously obtained safety and PK data for that dose group. If necessary, it was permitted to add an additional dose level between two explored dose levels for further investigation.
During the phase Ia study, the safe and probably effective dose will be delivered to the expansion cohort to further investigate the safety, tolerability and efficacy of this dose level, while the dose escalation study can be continued simultaneously. If necessary, it is permitted to insert a new dose level between two explored dose levels for exploration. The subjects to be enrolled in the expansion cohort are patients with advanced solid tumors with PIK3CA gene mutations. When there are two or more dose groups at dose expansion simultaneously, the allocation ratio of the number of subjects in each dose group should be as close as possible to the ratio of ORR in each dose group. In principle, when the cumulative ORR at a certain dose level is <10%, the number of subjects in this dose group will be determined by the SMC. A total of approximately 60 patients are expected to be enrolled in the whole phase Ia study.
The secondary endpoints included preliminary efficacy assessments based on ORR, PFS, DoR, DCR, and clinical benefit rate, assessed per RECIST 1.1,PK parameters for CYH33 and its metabolite I27, and changes in PD biomarkers in response to CYH33 treatment.

Which results are given for COC(=O)Nc1cc(C(F)(F)F)c(-c2nc(N3CCOCC3)c3cc(CN4CCN(S(C)(=O)=O)CC4)cn3n2)cn1 [CYH33, methyl (5-(6-((4-(methylsulfonyl)piperazin-1-yl)methyl)−4-morpholinopyrrolo[2,1-f][1,2,4]triazin-2-yl)−4-(trifluoromethyl)pyridin-2-yl)carbamate]?
Blood glucose increased, Grade ≥ 3 TRAE (30 mg QD, n = 12): 0 n (%); Decreased appetite, Grade ≥ 3 TRAE (30 mg QD, n = 12): 0 n (%); Decreased appetite, all-grade TRAE (30 mg QD, n = 12): 4 (33.3) n (%); Diabetic ketosis, Grade ≥ 3 TRAE (30 mg QD, n = 12): 1 (8.3) n (%); Diarrhea, Grade ≥ 3 TRAE (30 mg QD, n = 12): 0 n (%); Diarrhea, all-grade TRAE (30 mg QD, n = 12): 2 (16.7) n (%); Dizziness, Grade ≥ 3 TRAE (30 mg QD, n = 12): 0 n (%); Electrocardiogram QT prolonged, Grade ≥ 3 TRAE (30 mg QD, n = 12): 0 n (%); Face oedema, Grade ≥ 3 TRAE (30 mg QD, n = 12): 0 n (%); Facial edema, all-grade TRAE (30 mg QD, n = 12): 4 (33.3) n (%); Fatigue, Grade ≥ 3 TRAE (30 mg QD, n = 12): 0 n (%); Fatigue, all-grade TRAE (30 mg QD, n = 12): 2 (16.7) n (%); Generalized oedema, Grade ≥ 3 TRAE (30 mg QD, n = 12): 1 (8.3) n (%); Grade ≥ 3 TRAEs in all patients (30 mg QD, n = 12): 7 (58.3) n (%); Hyperglycemia, Grade ≥ 3 TRAE (30 mg QD, n = 12): 7 (58.3) n (%); Hyperglycemia, all-grade TRAE (30 mg QD, n = 12): 11 (91.7) n (%); Hyponatremia, all-grade TRAE (30 mg QD, n = 12): 4 (33.3) n (%); Mouth ulceration, Grade ≥ 3 TRAE (30 mg QD, n = 12): 0 n (%); Nausea, Grade ≥ 3 TRAE (30 mg QD, n = 12): 0 n (%); Nausea, all-grade TRAE (30 mg QD, n = 12): 6 (50.0) n (%); Peripheral edema, Grade ≥ 3 TRAE (30 mg QD, n = 12): 0 n (%); Peripheral edema, all-grade TRAE (30 mg QD, n = 12): 4 (33.3) n (%); Rash, Grade ≥ 3 TRAE (30 mg QD, n = 12): 0 n (%); Rash, all-grade TRAE (30 mg QD, n = 12): 2 (16.7) n (%); TRAEs leading to death (30 mg QD, n = 12): 0 n (%); TRAEs leading to dose discontinuation (30 mg QD, n = 12): 1 (8.3) n (%); TRAEs leading to dose interruption (30 mg QD, n = 12): 10 (83.3) n (%); TRAEs leading to dose reduction (30 mg QD, n = 12): 0 n (%); TRAEs occurring in ≥ 10% of patients (30 mg QD, n = 12): 12 (100) n (%); Treatment-related serious adverse events (30 mg QD, n = 12): 1 (8.3) n (%); Vomiting, all-grade TRAE (30 mg QD, n = 12): 3 (25.0) n (%); Weight loss, all-grade TRAE (30 mg QD, n = 12): 4 (33.3) n (%); White blood cell count decreased, Grade ≥ 3 TRAE (30 mg QD, n = 12): 0 n (%); Blood glucose increased, Grade ≥ 3 TRAE (40 mg QD, n = 24): 0 n (%); Decreased appetite, Grade ≥ 3 TRAE (40 mg QD, n = 24): 1 (4.2) n (%); Decreased appetite, all-grade TRAE (40 mg QD, n = 24): 12 (50.0) n (%); Diabetic ketosis, Grade ≥ 3 TRAE (40 mg QD, n = 24): 0 n (%); Diarrhea, Grade ≥ 3 TRAE (40 mg QD, n = 24): 1 (4.2) n (%); Diarrhea, all-grade TRAE (40 mg QD, n = 24): 7 (29.2) n (%); Dizziness, Grade ≥ 3 TRAE (40 mg QD, n = 24): 1 (4.2) n (%); Electrocardiogram QT prolonged, Grade ≥ 3 TRAE (40 mg QD, n = 24): 0 n (%); Face oedema, Grade ≥ 3 TRAE (40 mg QD, n = 24): 1 (4.2) n (%); Facial edema, all-grade TRAE (40 mg QD, n = 24): 4 (16.7) n (%); Fatigue, Grade ≥ 3 TRAE (40 mg QD, n = 24): 1 (4.2) n (%); Fatigue, all-grade TRAE (40 mg QD, n = 24): 6 (25.0) n (%); Generalized oedema, Grade ≥ 3 TRAE (40 mg QD, n = 24): 0 n (%); Grade ≥ 3 TRAEs in all patients (40 mg QD, n = 24): 19 (79.2) n (%); Hyperglycemia, Grade ≥ 3 TRAE (40 mg QD, n = 24): 17 (70.8) n (%); Hyperglycemia, all-grade TRAE (40 mg QD, n = 24): 23 (95.8) n (%); Hyponatremia, all-grade TRAE (40 mg QD, n = 24): 2 (8.3) n (%); Mouth ulceration, Grade ≥ 3 TRAE (40 mg QD, n = 24): 1 (4.2) n (%); Mouth ulceration, all-grade TRAE (40 mg QD, n = 24): 5 (20.8) n (%); Nausea, Grade ≥ 3 TRAE (40 mg QD, n = 24): 0 n (%); Nausea, all-grade TRAE (40 mg QD, n = 24): 9 (37.5) n (%); Peripheral edema, Grade ≥ 3 TRAE (40 mg QD, n = 24): 4 (16.7) n (%); Peripheral edema, all-grade TRAE (40 mg QD, n = 24): 8 (33.3) n (%); Rash, Grade ≥ 3 TRAE (40 mg QD, n = 24): 1 (4.2) n (%); Rash, all-grade TRAE (40 mg QD, n = 24): 6 (25.0) n (%); TRAEs leading to death (40 mg QD, n = 24): 0 n (%); TRAEs leading to dose discontinuation (40 mg QD, n = 24): 2 (8.3) n (%); TRAEs leading to dose interruption (40 mg QD, n = 24): 19 (79.2) n (%); TRAEs leading to dose reduction (40 mg QD, n = 24): 5 (20.8) n (%); TRAEs occurring in ≥ 10% of patients (40 mg QD, n = 24): 23 (95.8) n (%); Treatment-related serious adverse events (40 mg QD, n = 24): 4 (16.7) n (%); Vomiting, all-grade TRAE (40 mg QD, n = 24): 6 (25.0) n (%); Weight loss, all-grade TRAE (40 mg QD, n = 24): 9 (37.5) n (%); White blood cell count decreased, Grade ≥ 3 TRAE (40 mg QD, n = 24): 1 (4.2) n (%); DLT rate (40 mg dose level, 1 out of 6 DLT evaluable patients): 16.7%; patients with DLT: grade 3 hyperglycemia (40 mg, dose-escalation stage (19 patients)): 1; patients with DLT: grade 3 hyperglycemia and grade 3 nausea (60 mg, dose-escalation stage (19 patients)): 2; Blood glucose increased, Grade ≥ 3 TRAE (1–20 mg QD, n = 10): 0 n (%); Decreased appetite, Grade ≥ 3 TRAE (1–20 mg QD, n = 10): 0 n (%); Decreased appetite, all-grade TRAE (1–20 mg QD, n = 10): 3 (30.0) n (%); Diabetic ketosis, Grade ≥ 3 TRAE (1–20 mg QD, n = 10): 0 n (%); Diarrhea, Grade ≥ 3 TRAE (1–20 mg QD, n = 10): 0 n (%); Diarrhea, all-grade TRAE (1–20 mg QD, n = 10): 3 (30.0) n (%); Dizziness, Grade ≥ 3 TRAE (1–20 mg QD, n = 10): 0 n (%); Electrocardiogram QT prolonged, Grade ≥ 3 TRAE (1–20 mg QD, n = 10): 1 (10.0) n (%); Face oedema, Grade ≥ 3 TRAE (1–20 mg QD, n = 10): 0 n (%); Facial edema, all-grade TRAE (1–20 mg QD, n = 10): 0 n (%); Fatigue, Grade ≥ 3 TRAE (1–20 mg QD, n = 10): 0 n (%); Fatigue, all-grade TRAE (1–20 mg QD, n = 10): 1 (10.0) n (%)

— paper PMC9669016, “First-in-human phase Ia study of the PI3Kα inhibitor CYH33 in patients with solid tumors” (Nature Communications, 2022)
